In patent US20230250054A1, “SELECTIVE HISTONE DEACETYLASE 6 INHIBITORS” (The Board of Trustees of the University of Illinois, priority 2020, published 2023):

Experiments:
HDAC6 = molecular target: T1, HDAC6 (Homo sapiens, UniProt Q9UBN7); assay: Fluorescence-based HDAC inhibition assay, HDAC6; assay type: biochemical; conditions: for LE (ligand efficiency): 1.4 × pIC50/number of heavy atoms; for selectivity over Class IIa isoforms HDAC4, 5, 7, and 9: HDAC6 vs HDAC4, 5, 7 and 9; for LipE (lipophilic ligand efficiency): pIC50 − clog Po/w
T1 construct: our assay that uses approximately 0.6 nM concentration of the full-length enzyme; made in house; host or cells: HEK293/T17 cells, transient transfection
T1 sequence (Q9UBN7 1-1215): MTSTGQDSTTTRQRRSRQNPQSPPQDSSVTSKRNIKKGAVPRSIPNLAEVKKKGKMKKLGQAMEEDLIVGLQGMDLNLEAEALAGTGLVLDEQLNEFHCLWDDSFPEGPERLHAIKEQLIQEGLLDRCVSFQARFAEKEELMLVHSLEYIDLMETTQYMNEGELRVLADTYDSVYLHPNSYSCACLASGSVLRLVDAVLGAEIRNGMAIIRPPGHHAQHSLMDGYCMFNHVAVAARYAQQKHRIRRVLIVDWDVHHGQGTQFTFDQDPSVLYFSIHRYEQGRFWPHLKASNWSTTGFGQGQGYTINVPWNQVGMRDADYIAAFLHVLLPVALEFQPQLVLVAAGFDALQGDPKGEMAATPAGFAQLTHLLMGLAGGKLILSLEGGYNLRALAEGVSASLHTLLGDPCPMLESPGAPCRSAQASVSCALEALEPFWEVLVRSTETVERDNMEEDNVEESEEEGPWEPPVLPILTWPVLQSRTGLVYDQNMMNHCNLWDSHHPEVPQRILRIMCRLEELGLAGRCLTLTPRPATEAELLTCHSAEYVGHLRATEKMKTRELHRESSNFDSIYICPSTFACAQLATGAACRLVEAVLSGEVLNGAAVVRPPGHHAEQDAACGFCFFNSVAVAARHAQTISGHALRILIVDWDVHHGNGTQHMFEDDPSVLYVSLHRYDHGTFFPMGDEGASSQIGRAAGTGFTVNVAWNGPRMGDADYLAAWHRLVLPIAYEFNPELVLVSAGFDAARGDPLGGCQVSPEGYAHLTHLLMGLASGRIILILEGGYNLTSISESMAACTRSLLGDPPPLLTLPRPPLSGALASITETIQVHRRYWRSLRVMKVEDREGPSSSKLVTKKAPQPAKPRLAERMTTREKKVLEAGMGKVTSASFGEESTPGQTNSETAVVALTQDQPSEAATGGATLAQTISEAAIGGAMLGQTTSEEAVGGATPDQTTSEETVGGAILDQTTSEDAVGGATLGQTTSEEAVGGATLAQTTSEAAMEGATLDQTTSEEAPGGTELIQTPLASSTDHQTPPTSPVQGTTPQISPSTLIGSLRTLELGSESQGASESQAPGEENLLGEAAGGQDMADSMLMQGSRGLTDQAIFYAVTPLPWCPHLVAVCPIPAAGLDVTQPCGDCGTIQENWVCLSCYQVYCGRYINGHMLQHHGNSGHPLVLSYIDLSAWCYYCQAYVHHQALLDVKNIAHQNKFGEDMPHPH
Description: (§1) Briefly, transiently transfected cells were harvested three days post-transfection and the cell pellets resuspended in a lysis buffer (50 mM Tris, 150 mM NaCl, 10 mM KCl, 2 mM MgCl2, 10% glycerol, 0.2% NP-40, 2 Units/mL benzonase, pH 8) supplemented with a cocktail of protease inhibitors (Roche, Basel, Switzerland). Cells were lysed by sonication (30 W; 3×20 s) on ice, and the cell lysate cleared by centrifugation at 40 000×g for 30 min at 4° C. […] Purified proteins were concentrated to 1 mg/mL, aliquoted, flash-frozen in liquid nitrogen, and stored at −80° C. until further use.
(§2) Briefly, individual HDACs were preincubated with dilution series of tested inhibitors (0-100 μM) in a 384-well plate in the total volume of 40 μL for 10 min at 37° C. in a reaction buffer comprising 50 mM HEPES, 140 mM NaCl, 10 mM KCl, 1 mM TCEP, 0.1% BSA, pH 7.4. Deacetylation reaction was started by the addition of 10 μL of a 10 μM substrate into the HDAC/inhibitor mixture. Following the 30 min incubation at 37° C., the reaction was terminated by the addition of 25 μL of the trypsin solution (4 mg/mL). Fluorescence development by trypsin was carried out at 37° C. for 15 and 60 min for Ac-GAK(Ac)-AMC and Boc-Lys(TFA)-AMC substrate, respectively. […] Non-linear regression analysis was employed to calculate IC50 values using the GraphPad Prism software. […] Reactions without the enzyme or the inhibitor were used to define 0% and 100% of the HDAC activity, respectively.

HDAC1 = molecular target: T2, HDAC1 (Homo sapiens, UniProt Q13547); assay: Fluorescence-based HDAC inhibition assay, HDAC1; assay type: biochemical
T2 construct: made in house; host or cells: HEK293/T17 cells, transient transfection
T2 sequence (Q13547 whole entry): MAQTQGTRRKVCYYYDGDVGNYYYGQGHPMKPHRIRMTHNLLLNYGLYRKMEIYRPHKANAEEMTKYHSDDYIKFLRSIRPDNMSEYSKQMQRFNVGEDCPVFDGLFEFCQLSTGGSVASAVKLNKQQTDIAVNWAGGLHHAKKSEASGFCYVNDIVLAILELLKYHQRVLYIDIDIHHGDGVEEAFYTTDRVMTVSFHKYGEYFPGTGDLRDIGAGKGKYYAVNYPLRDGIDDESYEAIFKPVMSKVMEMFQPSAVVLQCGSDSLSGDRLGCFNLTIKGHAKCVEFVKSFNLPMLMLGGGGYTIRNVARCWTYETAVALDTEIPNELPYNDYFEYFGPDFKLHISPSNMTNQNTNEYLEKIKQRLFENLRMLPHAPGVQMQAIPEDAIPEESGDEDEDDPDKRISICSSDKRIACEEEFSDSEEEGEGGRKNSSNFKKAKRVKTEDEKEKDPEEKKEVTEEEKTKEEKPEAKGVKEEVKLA
Description: as §1, §2

HDAC2 = molecular target: T3, HDAC2 (Homo sapiens, UniProt Q92769); assay: Fluorescence-based HDAC inhibition assay, HDAC2; assay type: biochemical; conditions: for IC50: 10 μM Ac-GAK(Ac)-AMC substrate, mean of two experiments ± SEM
T3 construct: made in house; host or cells: HEK293/T17 cells, transient transfection
T3 sequence (Q92769 whole entry): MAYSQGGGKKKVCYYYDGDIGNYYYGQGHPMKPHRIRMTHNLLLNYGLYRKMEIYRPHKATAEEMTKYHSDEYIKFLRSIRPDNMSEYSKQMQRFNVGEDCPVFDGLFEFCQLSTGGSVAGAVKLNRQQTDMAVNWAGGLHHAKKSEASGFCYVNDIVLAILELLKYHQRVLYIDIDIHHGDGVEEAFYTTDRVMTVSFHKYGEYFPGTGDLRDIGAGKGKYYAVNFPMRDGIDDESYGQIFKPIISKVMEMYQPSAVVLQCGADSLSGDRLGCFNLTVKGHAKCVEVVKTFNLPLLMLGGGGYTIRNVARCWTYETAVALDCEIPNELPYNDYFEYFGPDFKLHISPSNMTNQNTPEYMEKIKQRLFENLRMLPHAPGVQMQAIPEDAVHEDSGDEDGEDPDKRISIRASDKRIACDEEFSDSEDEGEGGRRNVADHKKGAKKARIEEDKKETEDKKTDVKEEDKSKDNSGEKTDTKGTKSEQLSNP
Description: as §1, §2

HDAC3 = molecular target: T4, HDAC3 (Homo sapiens, UniProt O15379); assay: Fluorescence-based HDAC inhibition assay, HDAC3; assay type: biochemical; conditions: for IC50: 10 μM Ac-GAK(Ac)-AMC substrate, mean of two experiments ± SEM
T4 construct: made in house; host or cells: HEK293/T17 cells, transient transfection
T4 sequence (O15379 whole entry): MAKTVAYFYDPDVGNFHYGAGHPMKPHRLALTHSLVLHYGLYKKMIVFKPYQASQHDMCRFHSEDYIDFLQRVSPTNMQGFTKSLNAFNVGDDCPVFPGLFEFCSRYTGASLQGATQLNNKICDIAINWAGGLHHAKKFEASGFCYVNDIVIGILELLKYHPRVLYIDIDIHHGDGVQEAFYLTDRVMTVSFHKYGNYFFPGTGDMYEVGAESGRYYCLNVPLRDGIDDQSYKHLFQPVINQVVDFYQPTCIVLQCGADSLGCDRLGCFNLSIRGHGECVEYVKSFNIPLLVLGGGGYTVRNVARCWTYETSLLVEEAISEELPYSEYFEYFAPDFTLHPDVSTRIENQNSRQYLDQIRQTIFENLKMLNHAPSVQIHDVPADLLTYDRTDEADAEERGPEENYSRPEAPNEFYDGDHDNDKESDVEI
T4 sequence (Q9Y618 389-480 partner limits assumed): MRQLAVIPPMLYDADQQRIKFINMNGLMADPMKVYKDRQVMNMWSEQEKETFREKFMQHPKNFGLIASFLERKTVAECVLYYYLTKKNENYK
Description: as §1, §2

HDAC8 = molecular target: T5, HDAC8 (Homo sapiens, UniProt Q9BY41); assay: Fluorescence-based HDAC inhibition assay, HDAC8; assay type: biochemical; conditions: for IC50: 10 μM Boc-Lys(TFA)-AMC substrate, mean of two experiments ± SEM
T5 construct: made in house; host or cells: HEK293/T17 cells, transient transfection
T5 sequence (Q9BY41 1-377): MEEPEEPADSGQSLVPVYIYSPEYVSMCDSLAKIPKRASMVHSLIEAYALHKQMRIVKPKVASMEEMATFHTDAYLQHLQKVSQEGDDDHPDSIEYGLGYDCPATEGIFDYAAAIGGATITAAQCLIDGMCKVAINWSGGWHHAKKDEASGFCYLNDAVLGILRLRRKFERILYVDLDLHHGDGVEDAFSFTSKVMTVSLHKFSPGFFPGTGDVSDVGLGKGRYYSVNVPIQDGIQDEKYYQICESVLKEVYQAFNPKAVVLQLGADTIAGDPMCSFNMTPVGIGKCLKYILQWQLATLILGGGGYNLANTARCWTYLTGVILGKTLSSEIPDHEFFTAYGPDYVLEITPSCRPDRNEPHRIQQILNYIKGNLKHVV
Description: as §1, §2

HDAC9 = molecular target: T6, HDAC9 (Homo sapiens, UniProt Q9UKV0); assay: Fluorescence-based HDAC inhibition assay, HDAC9; assay type: biochemical; conditions: for IC50: 10 μM Boc-Lys(TFA)-AMC substrate, mean of two experiments ± SEM
T6 construct: made in house; host or cells: HEK293/T17 cells, transient transfection
T6 sequence (Q9UKV0 whole entry): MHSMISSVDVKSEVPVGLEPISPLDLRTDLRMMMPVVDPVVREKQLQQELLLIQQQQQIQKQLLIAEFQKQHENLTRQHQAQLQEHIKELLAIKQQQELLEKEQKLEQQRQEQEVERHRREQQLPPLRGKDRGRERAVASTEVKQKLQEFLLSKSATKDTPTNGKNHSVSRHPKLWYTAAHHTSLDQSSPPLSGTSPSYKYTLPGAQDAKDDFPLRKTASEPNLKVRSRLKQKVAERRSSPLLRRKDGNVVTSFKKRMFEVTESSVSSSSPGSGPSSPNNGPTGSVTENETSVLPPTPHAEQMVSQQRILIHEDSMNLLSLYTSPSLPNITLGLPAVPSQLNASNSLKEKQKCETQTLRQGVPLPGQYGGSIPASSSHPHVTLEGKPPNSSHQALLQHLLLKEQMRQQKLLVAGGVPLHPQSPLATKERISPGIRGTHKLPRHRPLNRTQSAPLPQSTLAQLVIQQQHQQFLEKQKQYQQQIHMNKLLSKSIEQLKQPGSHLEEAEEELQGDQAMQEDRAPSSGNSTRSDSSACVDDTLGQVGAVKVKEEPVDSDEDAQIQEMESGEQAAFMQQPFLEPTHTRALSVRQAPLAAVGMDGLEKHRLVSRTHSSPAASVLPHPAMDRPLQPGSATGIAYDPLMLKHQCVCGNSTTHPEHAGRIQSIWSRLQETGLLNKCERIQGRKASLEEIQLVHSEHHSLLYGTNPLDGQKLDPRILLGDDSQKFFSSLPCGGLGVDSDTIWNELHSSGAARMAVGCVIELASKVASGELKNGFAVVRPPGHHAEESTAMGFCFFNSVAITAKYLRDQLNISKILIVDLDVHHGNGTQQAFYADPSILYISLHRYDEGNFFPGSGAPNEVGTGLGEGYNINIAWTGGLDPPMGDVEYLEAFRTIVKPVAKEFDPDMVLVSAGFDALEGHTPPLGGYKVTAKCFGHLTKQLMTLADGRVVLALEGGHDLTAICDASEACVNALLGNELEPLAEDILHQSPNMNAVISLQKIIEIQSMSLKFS
Description: as §1, §2

plasma protein = assay: Protein binding in human plasma; conditions: plasma protein-bound fraction, mean with standard error
[1] = Stability in simulated gastric fluid (SGF)
[2] = 10 μM Ac-GAK(Ac)-AMC substrate, mean of two experiments ± SEM

| SMILES | SI (HDAC6 selectivity index), HDAC6 (HDAC6) | IC50 (HDAC6; [2]) | LE (ligand efficiency) (HDAC6) | selectivity over Class IIa isoforms HDAC4, 5, 7, and 9 (HDAC6) | LipE (lipophilic ligand efficiency) (HDAC6) | SI (HDAC6 selectivity index over HDAC1) (HDAC1) | IC50 (HDAC1; [2]) | SI (HDAC6 selectivity index over HDAC2) (HDAC2) | IC50 (HDAC2) | SI (HDAC6 selectivity index over HDAC3) (HDAC3) | IC50 (HDAC3) | SI (HDAC6 selectivity index over HDAC8) (HDAC8) | IC50 (HDAC8) | SI (HDAC6 selectivity index over HDAC9) (HDAC9) | IC50 (HDAC9) | Human plasma stability (t1/2, h) (Human plasma stability) | Human plasma binding (%) (plasma protein) | SGF stability (t1/2, h) [1] | also measured |
| --- | --- | --- | --- | --- | --- | --- | --- | --- | --- | --- | --- | --- | --- | --- | --- | --- | --- | --- | --- |
| NCc1ccc(NC(=O)N(CCCCO)Cc2ccc(C(=O)NO)cc2)cc1 [Compound 6a, 4-((3-(4-(Aminomethyl)phenyl)-1-(4-hydroxybutyl)ureido)methyl)-N-hydroxybenz-amide] | 1 | 0.4 nM | 0.47 | thousand-fold selectivity | 7.57 | 293 | 117 ± 10 nM | 440 | 176 ± 21 nM | 880 | 352 ± 2 nM | 1,250 | 498 ± 58 nM | 15,700 | 6.27 µM | >5 h | 1.9% | >5 h | IC50 (HDAC6; Table 2): 0.4 nM; IC50 (HDAC1; Table 2): 117 ± 10 nM; HDAC1/6 (HDAC1; ratio HDAC1 IC50 / HDAC6 IC50, Table 2): 293; Human plasma binding (%) (plasma protein; listed as Suprastat): 1.9% |
| CCCCN(Cc1ccc(C(=O)NO)cc1)C(=O)Nc1ccc(CN)cc1 [Compound 6b, 4-((3-(4-(Aminomethyl)phenyl)-1-butylureido)methyl)-N-hydroxybenzamide] | 1 | 0.9 ± 0.7 nM | 0.47 |  | 6.59 | 89 | 80 ± 45 nM | 312 | 281 ± 28 nM | 492 | 443 ± 108 nM | 682 | 614 ± 58 nM | 19,200 | 17.3 µM | >5 h | approximately 50% | >5 h |  |
| O=C(NO)c1ccc(CN(CCCCO)C(=O)Nc2ccccc2)cc1 [Compound 6c, reference compound] | 1 | 0.5 nM | 0.50 | thousand-fold selectivity | 6.98 | 296 | 148 ± 9 nM | 536 | 268 ± 16 nM |  | 581 ± 18 nM | 956 | 478 ± 97 nM | 59,50 | 29.7 µM | >5 h | approximately 50% | >5 h |  |
